Data: patent US12227495B2, “Herbicidal compounds” (SYNGENTA CROP PROTECTION AG, priority 2018, dated 2025)

Legend:
Type in all cases: in vivo
Setaria faberi (SETFA) [1] = test: Pre-emergence herbicide test, glasshouse, percentage damage; conditions: rate 1000 g/ha, evaluated after 13 days
How it was run: (§1)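 Percentage damage, recorded 13 days after treatment, is given as a five-point score (1=0-20%, 2=21-40%, 3=41-60%, 4=61-80%, 5=81-100%). Plants grown in soil pots under 24/16 °C, 14 h light and 65% humidity received a 500 g/ha spray (unless stated otherwise).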

[2] = tested on: Amaranthus retoflexus (AMARE); test: as above; conditions: rate 1000 g/ha, evaluated after 13 days
How it was run: as §1

[3] = tested on: Ipomoea hederacea (IPOHE); test: as above; conditions: rate 1000 g/ha, evaluated after 13 days
How it was run: as §1

Solanum nigrum (SOLNI) [4] = test: as above; conditions: rate 1000 g/ha, evaluated after 13 days
How it was run: as §1

[5] = tested on: Echinochloa crus-galli (ECHCG); test: as above; conditions: rate 1000 g/ha, evaluated after 13 days
How it was run: as §1

Lolium perenne (LOLPE) [6] = test: as above; conditions: rate 1000 g/ha, evaluated after 13 days
How it was run: as §1

Setaria faberi (SETFA) [7] = test: Post-emergence herbicide test, glasshouse, percentage damage; conditions: 1000 g/ha, evaluated after 13 days
How it was run: as §1

[8] = tested on: Amaranthus retoflexus (AMARE); test: as above; conditions: 1000 g/ha, evaluated after 13 days
How it was run: as §1

[9] = tested on: Ipomoea hederacea (IPOHE); test: as above; conditions: 1000 g/ha, evaluated after 13 days
How it was run: as §1

Solanum nigrum (SOLNI) [10] = test: as above; conditions: 1000 g/ha, evaluated after 13 days
How it was run: as §1

[11] = tested on: Echinochloa crus-galli (ECHCG); test: as above; conditions: 1000 g/ha, evaluated after 13 days
How it was run: as §1

Lolium perenne (LOLPE) [12] = test: as above; conditions: 1000 g/ha, evaluated after 13 days
How it was run: as §1

Structure (SMILES) | Pre-emergence Test SETFA percentage damage (five point scale) (Setaria faberi (SETFA) [1]) | Pre-emergence Test AMARE percentage damage (five point scale) [2] | Pre-emergence Test IPOHE percentage damage (five point scale) [3] | Pre-emergence Test SOLNI percentage damage (five point scale) (Solanum nigrum (SOLNI) [4]) | Pre-emergence Test ECHCG percentage damage (five point scale) [5] | Pre-emergence Test LOLPE percentage damage (five point scale) (Lolium perenne (LOLPE) [6]) | percentage damage caused to the plant, SETFA (Setaria faberi (SETFA) [7]) | percentage damage caused to the plant, AMARE [8] | percentage damage caused to the plant, IPOHE [9] | percentage damage caused to the plant, SOLNI (Solanum nigrum (SOLNI) [10]) | percentage damage caused to the plant, ECHCG [11] | percentage damage caused to the plant, LOLPE (Lolium perenne (LOLPE) [12])
FC(F)c1cc(-c2c(Cl)cccc2Oc2ccc(Cl)cn2)on1 [Compound A113] | 5 (5=81-100%) | 5 (5=81-100%) | 4 (4=61-80%) | 4 (4=61-80%) | 5 (5=81-100%) | 5 (5=81-100%) | 5 (5=81-100%) | 5 (5=81-100%) | 5 (5=81-100%) | 4 (4=61-80%) | 4 (4=61-80%) | 5 (5=81-100%)
Fc1cnc(Oc2cccc(Cl)c2-c2cc(C(F)F)no2)c(F)c1 [Compound A114] | 5 (5=81-100%) | 5 (5=81-100%) | 5 (5=81-100%) | 4 (4=61-80%) | 5 (5=81-100%) | 5 (5=81-100%) | 5 (5=81-100%) | 5 (5=81-100%) | 5 (5=81-100%) | 5 (5=81-100%) | 4 (4=61-80%) | 4 (4=61-80%)
N#Cc1ccc(Oc2cccc(Cl)c2-c2cc(C(F)F)no2)nc1 [Compound A115] | 5 (5=81-100%) | 5 (5=81-100%) | 5 (5=81-100%) | 4 (4=61-80%) | 5 (5=81-100%) | 5 (5=81-100%) | 5 (5=81-100%) | 5 (5=81-100%) | 5 (5=81-100%) | 5 (5=81-100%) | 4 (4=61-80%) | 4 (4=61-80%)
Fc1cc(Br)cnc1Oc1cccc(Cl)c1-c1cc(C(F)F)no1 [Compound A116] | 5 (5=81-100%) | 5 (5=81-100%) | 4 (4=61-80%) | 4 (4=61-80%) | 5 (5=81-100%) | 5 (5=81-100%) | 5 (5=81-100%) | 5 (5=81-100%) | 5 (5=81-100%) | 5 (5=81-100%) | 4 (4=61-80%) | 5 (5=81-100%)
Fc1cc(C(F)(F)F)cnc1Oc1cccc(Cl)c1-c1cc(C(F)F)no1 [Compound A117] | 5 (5=81-100%) | 5 (5=81-100%) | 5 (5=81-100%) | 2 (2=21-40%) | 4 (4=61-80%) | 4 (4=61-80%) | 4 (4=61-80%) | 5 (5=81-100%) | 5 (5=81-100%) | 4 (4=61-80%) | 4 (4=61-80%) | 4 (4=61-80%)
N#Cc1cc(C(F)(F)F)cnc1Oc1cccc(Cl)c1-c1cc(C(F)F)no1 [Compound A118] | 5 (5=81-100%) | 5 (5=81-100%) | 4 (4=61-80%) | 4 (4=61-80%) | 5 (5=81-100%) | 5 (5=81-100%) | 5 (5=81-100%) | 5 (5=81-100%) | 5 (5=81-100%) | 5 (5=81-100%) | 5 (5=81-100%) | 5 (5=81-100%)
FC(F)c1cc(-c2c(Cl)cccc2Oc2ccc(Br)cn2)on1 [Compound A119] | 5 (5=81-100%) | 5 (5=81-100%) | 4 (4=61-80%) | 4 (4=61-80%) | 5 (5=81-100%) | 5 (5=81-100%) | 5 (5=81-100%) | 5 (5=81-100%) | 5 (5=81-100%) | 5 (5=81-100%) | 4 (4=61-80%) | 5 (5=81-100%)
N#Cc1cccnc1Oc1cccc(Cl)c1-c1cc(C(F)F)no1 [Compound A120] | 5 (5=81-100%) | 5 (5=81-100%) | 3 (3=41-60%) | 4 (4=61-80%) | 5 (5=81-100%) | 2 (2=21-40%) | 5 (5=81-100%) | 5 (5=81-100%) | 4 (4=61-80%) | 5 (5=81-100%) | 4 (4=61-80%) | 3 (3=41-60%)
Fc1cc(Cl)cnc1Oc1ccccc1-n1ccc(C(F)(F)F)n1 [Compound A121] | 3 (3=41-60%) | 4 (4=61-80%) | 1 (1=0-20%) | 1 (1=0-20%) | 4 (4=61-80%) | 1 (1=0-20%) | 3 (3=41-60%) | 4 (4=61-80%) | 2 (2=21-40%) | 4 (4=61-80%) | 3 (3=41-60%) | 1 (1=0-20%)
